In PubChem BioAssay (NCI) one finds GI50 and TGI data, which are given here for seven compounds.

Among the test systems are MDA-MB-435; BT-549 breast; CCRF-CEM leukemia; NCI-H460 lung; HT29 colon; EKVX NSCLC; SF-295 CNS; HOP-92 NSCLC; 786-0 renal; RXF 393 renal.
Assay in all cases: inhibition of tumour cell growth, NCI panel, 48 h

SMILES strings stand for the structures.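 Cultured in 96-well plates, cells were exposed to test compound for 48 hours across five concentrations. GI50 = concentration required for 50% inhibition of growth. At the TGI there is no net growth.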

With `COc1ccc(-c2ccc(/C=C/C(=O)NO)cc2)cc1`, the GI50 with MDA-MB-435 was 2.12 µM; in the test with BT-549 breast, 1.53 µM; in the test on CCRF-CEM leukemia it was 0.0481 µM; in the test with NCI-H460 lung, 0.142 µM; with HT29 colon, 3.56 µM; in the test with EKVX NSCLC, 2.23 µM. In addition, the GI50 with SF-295 CNS was 0.23 µM; with HOP-92 NSCLC, 1.19 µM; in the test on 786-0 renal, 0.99 µM; with RXF 393 renal, 0.554 µM. Moreover, the TGI in the test on MDA-MB-435 was above 100 µM; with BT-549 breast, 25.9 µM; in the test with CCRF-CEM leukemia, above 100 µM; with NCI-H460 lung, 4.46 µM; with HT29 colon, above 100 µM; in the test with EKVX NSCLC, 12.9 µM. Further, the TGI in the test on SF-295 CNS amounted to 2.01 µM; with HOP-92 NSCLC it was 4.98 µM; in the test on 786-0 renal, 3.79 µM; with RXF 393 renal, 3.03 µM.

Consider `COc1cc(-c2cc(-c3ccc(N(C)C)cc3)nc(N3CCOCC3)c2C#N)cc(OC)c1OC`, for which the GI50 with MDA-MB-435 is 0.843 µM; in the test with BT-549 breast it was 0.471 µM; in the test with CCRF-CEM leukemia, 1.21 µM; in the test with NCI-H460 lung, 0.289 µM; in the test on HT29 colon, 0.385 µM; in the test with EKVX NSCLC, 0.988 µM. Moreover, the GI50 with SF-295 CNS was 0.381 µM; with HOP-92 NSCLC, 1.42 µM; in the test with 786-0 renal, 0.835 µM; in the test with RXF 393 renal, 0.134 µM. For the same compound, the TGI with MDA-MB-435 was 13.4 µM; in the test with BT-549 breast it was above 100 µM; in the test on CCRF-CEM leukemia it was above 100 µM; with NCI-H460 lung it was above 61.6 µM; in the test on HT29 colon, above 36 µM; in the test with EKVX NSCLC, above 100 µM. Moreover, the TGI is 1.11 µM with SF-295 CNS, above 29.9 µM in the test on HOP-92 NSCLC, 13.4 µM in the test with 786-0 renal and 3.85 µM with RXF 393 renal.

Consider `O=C(NCc1cccnc1)/C(=C\c1ccc(Br)cc1)S(=O)(=O)c1ccccc1`, for which the GI50 in the test with MDA-MB-435 is 0.477 µM; with BT-549 breast, 0.913 µM; with CCRF-CEM leukemia, 0.315 µM; with NCI-H460 lung, 0.714 µM; in the test on HT29 colon it was 0.514 µM; in the test with EKVX NSCLC it was 1.3 µM. The GI50 was 1.72 µM with SF-295 CNS, 0.745 µM in the test with HOP-92 NSCLC, 1.15 µM in the test with 786-0 renal and 0.413 µM in the test with RXF 393 renal. The TGI in the test with MDA-MB-435 was 1.73 µM; with BT-549 breast, 2.21 µM; in the test on CCRF-CEM leukemia, 4.5 µM; with NCI-H460 lung, 2.29 µM; in the test with HT29 colon, 3.92 µM; in the test with EKVX NSCLC it was 2.61 µM. In addition, the TGI was determined as 3.24 µM with SF-295 CNS, 2.23 µM in the test on HOP-92 NSCLC, 2.44 µM in the test on 786-0 renal and 1.42 µM in the test with RXF 393 renal.

In the case of `CC1(C)CCC[C@]23C(=O)O[C@](O)(C(=O)C4=C[C@@](C)(/C=C/CCCc5ccc6ccc7cccc8ccc5c6c78)CC[C@@]42O)[C@@H]13`, the GI50 was 0.173 µM with MDA-MB-435; 0.141 µM in the test on BT-549 breast; 0.199 µM with CCRF-CEM leukemia; 0.18 µM in the test on NCI-H460 lung; 0.235 µM in the test with HT29 colon; 0.216 µM in the test on EKVX NSCLC. The GI50 was 0.178 µM in the test with SF-295 CNS, 0.148 µM with HOP-92 NSCLC, 0.182 µM in the test on 786-0 renal and 0.174 µM in the test on RXF 393 renal. Moreover, the TGI with MDA-MB-435 worked out at 0.323 µM; in the test on BT-549 breast it was 0.282 µM; in the test with CCRF-CEM leukemia, 5.87 µM; with NCI-H460 lung it was 0.374 µM; in the test with HT29 colon it was 0.603 µM; in the test on EKVX NSCLC, 0.485 µM. In addition, the TGI is 0.336 µM in the test on SF-295 CNS, 0.302 µM in the test on HOP-92 NSCLC, 0.343 µM in the test on 786-0 renal and 0.335 µM in the test with RXF 393 renal.

As to `O=C1c2ccccc2C(=O)c2c1ccc(C(Br)Br)c2[N+](=O)[O-]`, the GI50 is 1.76 µM in the test with MDA-MB-435; 2.51 µM in the test on BT-549 breast; 0.582 µM with CCRF-CEM leukemia; 1.89 µM with NCI-H460 lung; 1.72 µM in the test with HT29 colon; 1.96 µM in the test on EKVX NSCLC. In addition, the GI50 in the test with SF-295 CNS was 3.7 µM; in the test on HOP-92 NSCLC it was 1.7 µM; in the test with 786-0 renal, 1.85 µM; in the test with RXF 393 renal, 1.26 µM. The TGI in the test on MDA-MB-435 was determined as 3.29 µM; with BT-549 breast it was 8.3 µM; in the test on CCRF-CEM leukemia it was 2.53 µM; with NCI-H460 lung it was 5.09 µM; in the test on HT29 colon it was 3.24 µM; with EKVX NSCLC, 4.58 µM. The TGI is 15.7 µM with SF-295 CNS, 3.3 µM in the test on HOP-92 NSCLC, 3.45 µM in the test with 786-0 renal and 2.72 µM in the test with RXF 393 renal.

Turning to `CN(C)CCCNc1nn2c(=O)c3ccccc3nc2c2ccccc12`, the GI50 is 6.24 µM in the test on MDA-MB-435; 10.9 µM in the test with BT-549 breast; 13.7 µM in the test with CCRF-CEM leukemia; 3.35 µM in the test on NCI-H460 lung; 3.46 µM in the test on HT29 colon; 14.4 µM in the test with EKVX NSCLC. The GI50 in the test with SF-295 CNS is 3.86 µM; with HOP-92 NSCLC, 4.13 µM; in the test with 786-0 renal, 10.9 µM; in the test on RXF 393 renal, 14.2 µM. Also, the TGI with MDA-MB-435 stood at 22.5 µM; with BT-549 breast, 45.7 µM; in the test on CCRF-CEM leukemia it was 48.5 µM; in the test with NCI-H460 lung, 13.6 µM; in the test with HT29 colon, 14.7 µM; in the test with EKVX NSCLC it was 51.1 µM. Further, the TGI was 24.5 µM in the test on SF-295 CNS, 59.3 µM in the test with HOP-92 NSCLC, 23.7 µM with 786-0 renal and 30.6 µM in the test with RXF 393 renal.

Consider `COc1cc(C)c(C(=O)O[C@H]2[C@H](O[C@H]3[C@@H](O)COC(O[C@H]4C[C@H]5[C@@H]6CC=C7C[C@@H](O)CC[C@]7(C)[C@H]6CC[C@]5(C)[C@H]4[C@H](C)C(=O)CCC(C)C)[C@@H]3OC(C)=O)OC[C@@H](O)[C@@H]2O)c(C)c1` (stereo not given in full), for which the GI50 in the test with MDA-MB-435 was below 0.01 µM; with BT-549 breast, below 0.01 µM; with CCRF-CEM leukemia it was below 0.01 µM; in the test on NCI-H460 lung, below 0.01 µM; with HT29 colon, 0.157 µM; with EKVX NSCLC, 1.06 µM. The GI50 in the test with SF-295 CNS, in the test on HOP-92 NSCLC, with 786-0 renal and with RXF 393 renal was below 0.01 µM each time. Besides, the TGI with MDA-MB-435 was 0.13 µM; in the test with BT-549 breast, 5.5 µM; in the test with CCRF-CEM leukemia, 0.102 µM; in the test with NCI-H460 lung, 1.74 µM; in the test on HT29 colon it was 15.7 µM; with EKVX NSCLC, 15.1 µM. For the same compound, the TGI in the test with SF-295 CNS was below 0.01 µM; with HOP-92 NSCLC, 2.58 µM; with 786-0 renal, 2.55 µM; with RXF 393 renal, below 0.01 µM.
